Measurements as given in EP4008716A1, “NOVEL INHIBITORS OF INSULIN-LIKE GROWTH FACTOR 2 MRNA BINDING PROTEINS” (Martin-Luther-Universität Halle-Wittenberg, priority 2020, dated 2022).

Test system: ES-2 cells
Test: Cytotoxicity / cell vitality by cell confluency (IncuCyte live-cell imaging) relative to DMSO controls
Type: cell-based
Conditions: Homo sapiens, ovarian cancer-derived ES-2 cells, 72 h post compound application, eleven concentrations, two-fold dilution from 20µM, mean of three independent studies
Method: All novel inhibitors were explored for their cytotoxic activity in ovarian cancer-derived ES-2 cells. In these cell models, BTYNB was prior shown to impair cell vitality and metastatic potential in vitro and cancer mouse models (15). For the respective studies ES-2 cells were plated and exposed to increasing concentration of the compounds and cell vitality was monitored by determining cell confluency relative to DMSO controls using an IncuCyte cell imaging system, essentially as described recently (15). For determining the impact of the developed compounds on ES-2 cell vitality, cells were cultured in Dulbecco's modified eagle medium (DMEM) containing phenol red, 4.5 g/L D-Glucose, 0.11 g/L sodium pyruvate, 10% (v/v) fetal bovine serum (FBS) and 2 mM GlutaMAX (Sigma-Aldrich, Darmstadt, Germany). Cells were maintained in under humidified conditions at 37 °C, 5% CO2. For cytotoxicity studies, cells were seeded in 96-well flat-bottom plates at 2 x 10^3 cells per well in 100 µL supplemented DMEM and incubated for 24 h prior to addition of BTYNB derivatives. Compounds were analyzed at eleven concentrations using a two-fold dilution with an initial compound concentration of 20µM in DMSO (solvent). Cells treated with 0.002% (v/v) DMSO served as controls. Cytotoxicity of compound concentrations was determined 72 h post compound application by monitoring cell confluency using an IncuCyte Systems for Live-Cell Imaging. Cell confluency was determined with the IncuCyte 2019B Rev2 software. Confluency of controls was set to 1 (100%) and altered confluency at distinct compound concentrations was calculated as relative confluency. The mean relative confluency at compound concentrations was analyzed in three independent studies with three technical replicates each. The mean values of three analyses were plotted against the logarithmic concentration of compounds and fitted by the non-linear module [Sigmoidal, 4PL, X is log(concentration)] using GraphPad Prism V9(86) for macOS. In Table 1 compounds with EC50 values, indicating the potency of the 58 developed compounds to impair cell vitality, are listed. […] Table 2: EC-values of the synthesized compounds of formula (I)

Point of comparison: `COc1ccc(C(=O)Nc2sc(C(C)C)cc2C(N)=O)cc1COc1ccc(Br)cc1` [compound 58, 2-({3-[(4-Bromophenoxy)methyl]-4-methoxybenzoyl}amino)-5-isopropyl-3-thiophenecarboxamide], EC50 8340 nM. Against it:
- NC(=O)c1ccccc1NC(=O)CN1CCN(Cc2ccc(Cl)cc2Cl)CC1 [compound 21, 2-({[4-(2,4-Dichlorobenzyl)-1-piperazinyl]acetyl}amino)benzamide] — 8.4-fold lower, 993 nM
- NC(=O)c1ccccc1NC(=O)CN1CCN(Cc2c(Cl)cccc2Cl)CC1 [compound 22, 2-({[4-(2,6-Dichlorobenzyl)-1-piperazinyl]acetyl}amino)benzamide] — within 1.5-fold, 6460 nM
- NC(=O)c1ccccc1NC(=O)CN1CCN(Cc2ccc(Cl)cc2)CC1 [compound 23, 2-({[4-(4-Chlorobenzyl)-1-piperazinyl]acetyl}amino)benzamide] — 2.8-fold lower, 2990 nM
- NC(=O)c1ccccc1NC(=O)CN1CCN(Cc2ccccc2Cl)CC1 [compound 24, 2-({[4-(2-Chlorobenzyl)-1-piperazinyl]acetyl}amino)benzamide] — within 1.5-fold, 9580 nM
- NC(=O)c1ccccc1NC(=O)CN1CCN(Cc2ccc(F)cc2Cl)CC1 [compound 25, 2-({[4-(2-Chloro-4-fluorobenzyl)-1-piperazinyl]acetyl}amino)benzamide] — 2.6-fold lower, 3170 nM
- COc1ccc(C(=O)Nc2ccccc2C(N)=O)cc1COc1ccccc1Cl [compound 26, 2-{3-[(2-Chlorophenoxy)methyl]-4-methoxybenzamido}benzamide] — 7.6-fold lower, 1100 nM
- COc1ccc(C(=O)Nc2sccc2C(N)=O)cc1COc1ccccc1Cl [compound 27, 2-{3-[(2-Chlorophenoxy)methyl]-4-methoxybenzamido}thiophene-3-carboxamide] — 5-fold lower, 1660 nM
- COc1cc(C=CC(=O)Nc2ccccc2C(N)=O)ccc1OCc1ccccc1 [compound 28, 2-({3-[4-(Benzyloxy)-3-methoxyphenyl]acryloyl}amino)benzamide] — 4.4-fold lower, 1880 nM
- NC(=O)c1c(NC(=O)c2ccc(Cl)s2)sc2c1CCC2 [compound 29, 2-{[(5-Chloro-2-thienyl)carbonyl]amino}-5,6-dihydro-4H-cyclopenta[b]thiophene-3-carboxamide] — within 1.5-fold, 6270 nM
- NC(=O)c1c(NC(=O)c2ccc(Cl)s2)sc2c1CCCC2 [compound 30, 2-{[(5-Chloro-2-thienyl)carbonyl]amino}-4,5,6,7-tetrahydro-1-benzothiophene-3-carboxamide] — 5.7-fold lower, 1470 nM
- NC(=O)c1cc(Cc2ccccc2)sc1NC(=O)c1cccs1 [compound 31, N-[3-(aminocarbonyl)-5-benzyl-2-thienyl]-2-thiophenecarboxamide] — 12-fold lower, 671 nM
- CCc1cc(C(=O)Nc2sc(Cc3ccccc3)cc2C(N)=O)cs1 [compound 32, 5-Benzyl-2-{[(5-ethyl-3-thienyl)carbonyl]amino}-3-thiophenecarboxamide] — 4.4-fold lower, 1900 nM
- CCc1c(C(=O)Nc2sc(Cc3ccccc3)cc2C(N)=O)csc1C [compound 33, 5-Benzyl-2-{[(4-ethyl-5-methyl-3-thienyl)carbonyl]amino}-3-thiophenecarboxamide] — 1.6-fold lower, 5060 nM
- NC(=O)c1cc(Cc2ccccc2)sc1NC(=O)Cc1cccs1 [compound 34, 5-Benzyl-2-[(2-thienylacetyl)amino]-3-thiophenecarboxamide] — 7.2-fold lower, 1160 nM
- Cc1ccc(C(=O)Nc2sc(Cc3ccccc3)cc2C(N)=O)o1 [compound 35, N-[3-(Aminocarbonyl)-5-benzyl-2-thienyl]-5-methyl-2-furamide] — 6.2-fold lower, 1340 nM
- NC(=O)c1cc(Cc2ccccc2)sc1NC(=O)c1ccc(Cl)s1 [compound 36, N-[3-(Aminocarbonyl)-5-benzyl-2-thienyl]-5-chloro-2-thiophenecarboxamide] — 5-fold lower, 1660 nM
- NC(=O)c1cc(Cc2ccccc2)sc1NC(=O)c1ccccc1 [compound 37, 2-(Benzoylamino)-5-benzyl-3-thiophenecarboxamide] — 3.7-fold lower, 2270 nM
- NC(=O)c1cc(Cc2ccccc2)sc1NC(=O)c1ccc2c(c1)OCO2 [compound 38, N-[3-(aminocarbonyl)-5-benzyl-2-thienyl]-1,3-benzodioxole-5-carboxamide] — 6.4-fold lower, 1300 nM
- NC(=O)c1cc(Cc2ccccc2)sc1NC(=O)CCc1ccccc1 [compound 39, 5-Benzyl-2-[(3-phenylpropanoyl)amino]-3-thiophenecarboxamide] — within 1.5-fold, 6210 nM
- NC(=O)c1cc(Cc2ccccc2)sc1NC(=O)COc1ccccc1 [compound 40, 5-Benzyl-2-[(phenoxyacetyl)amino]-3-thiophenecarboxamide] — 3.4-fold lower, 2420 nM
- COc1ccc(C(=O)Nc2sc(Cc3ccccc3)cc2C(N)=O)cc1 [compound 41, 5-Benzyl-2-[(4-methoxybenzoyl)amino]-3-thiophenecarboxamide] — 4.3-fold lower, 1940 nM
- CC(C)c1cc(C(N)=O)c(NC(=O)Cc2ccc(Cl)c(Cl)c2)s1 [compound 42, 2-{[(3,4-Dichlorophenyl)acetyl]amino}-5-isopropyl-3-thiophenecarboxamide] — 3.4-fold lower, 2450 nM
- NC(=O)c1cc(Cc2ccccc2)sc1NC(=O)c1ccc(COc2ccc(Br)cc2)cc1 [compound 43, 5-Benzyl-2-({4-[(4-bromophenoxy)methyl]benzoyl}amino)-3-thiophenecarboxamide] — 7-fold lower, 1190 nM
- COc1ccc(C(=O)Nc2sc(Cc3ccccc3)cc2C(N)=O)cc1COc1ccccc1Cl [compound 44, 5-Benzyl-2-({3-[(2-chlorophenoxy)methyl]-4-methoxybenzoyl}amino)-3-thiophenecarboxamide] — 19-fold lower, 439 nM
- COc1ccc(C(=O)Nc2sc(Cc3ccccc3)cc2C(N)=O)cc1COc1cccc(Cl)c1Cl [compound 45, 5-Benzyl-2-({3-[(2,3-dichlorophenoxy)methyl]-4-methoxybenzoyl}amino)-3-thiophenecarboxamide] — 21-fold lower, 401 nM
- COc1ccc(C(=O)Nc2sc(C(C)C)cc2C(N)=O)cc1COc1ccccc1Cl [compound 46, 2-({3-[(2-Chlorophenoxy)methyl]-4-methoxybenzoyl}amino)-5-isopropyl-3-thiophenecarboxamide] — 3.7-fold lower, 2230 nM
- COc1ccc(C(=O)Nc2sc(Cc3ccccc3)cc2C(N)=O)cc1COc1ccc(Cl)cc1Cl [compound 47, 5-Benzyl-2-{3-[(2,4-dichlorophenoxy)methyl]-4-methoxybenzamido}thiophene-3-carboxamide] — 28-fold lower, 293 nM
- COc1ccc(C(=O)Nc2sc(Cc3ccccc3)cc2C(N)=O)cc1OCc1ccccc1Cl [compound 48, 2-[3-(2-Chlorobenzyloxy)-4-methoxybenzamido]-5-benzylthiophene-3-carboxamide] — 7.6-fold lower, 1100 nM
- NC(=O)c1cc(Cc2ccccc2)sc1NC(=O)c1ccc(COc2ccc(Cl)cc2Cl)s1 [compound 49, N-(5-Benzyl-3-carbamoylthiophen-2-yl)-5-[(2,4-dichlorophenoxy)methyl]thiophene-2-carboxamide] — 15-fold lower, 560 nM
- NC(=O)c1cc(Cc2ccccc2)sc1NC(=O)c1cccc(COc2ccc(Cl)cc2Cl)c1 [compound 50, 5-Benzyl-2-{3-[(2,4-dichlorophenoxy)methyl]benzamido}thiophene-3-carboxamide] — 180-fold lower, 47 nM
- COc1ccc(C(=O)Nc2sc(Cc3ccccc3)cc2C(N)=O)cc1COc1cccc(Cl)c1 [compound 51, 5-Benzyl-2-{3-[(3-chlorophenoxy)methyl]-4-methoxybenzamido}thiophene-3-carboxamide] — 23-fold lower, 355 nM
- COc1ccc(C(=O)Nc2sc(Cc3ccccc3)cc2C(N)=O)cc1COc1ccc(Cl)cc1 [compound 52, 5-Benzyl-2-{3-[(4-chlorophenoxy)methyl]-4-methoxybenzamido}thiophene-3-carboxamide] — 8.2-fold lower, 1020 nM
- COc1ccc(C(=O)Nc2sc(Cc3ccccc3)cc2C(N)=O)cc1COc1c(Cl)cccc1Cl [compound 53, 5-Benzyl-2-{3-[(2,6-dichlorophenoxy)methyl]-4-methoxybenzamido}thiophene-3-carboxamide] — 3.2-fold lower, 2600 nM
- NC(=O)c1cc(Cc2ccccc2)sc1NC(=O)CN1CCN(Cc2ccccc2Cl)CC1 [compound 54, 2-{2-[4-(2-Chlorobenzyl)piperazin-1-yl]acetamido}-5-benzylthiophene-3-carboxamide] — within 1.5-fold, 7110 nM
- NC(=O)c1cc(Cc2ccccc2)sc1NC(=O)CN1CCN(Cc2ccc(Cl)c(Cl)c2)CC1 [compound 55, 2-{2-[4-(3,4-Dichlorobenzyl)piperazin-1-yl]acetamido}-5-benzylthiophene-3-carboxamide] — 2-fold lower, 4090 nM
- NC(=O)c1ccsc1NC(=O)CN1CCN(Cc2ccc(Cl)c(Cl)c2)CC1 [compound 56, 2-{2-[4-(3,4-Dichlorobenzyl)piperazin-1-yl]acetamido}thiophene-3-carboxamide] — 11-fold lower, 781 nM

Test system: ES-2 cells
Test: as above
Type: cell-based
Conditions: Homo sapiens, determined in 11 analyses with three technical replicates each

Work on `NC(=O)c1ccccc1N=Cc1ccc(Br)s1` [BTYNB, 2-{[(5-bromo-2-thienyl)methylene]amino}benzamide] yielded an EC50 of 5900 nM.
